# Where two headings read alike, the source gives them in different places.
# Tests used:
# [1] = Iron clearance efficiency in the normal (not iron-loaded) bile duct-cannulated Sprague-Dawley rat; format: in vivo
# Text: (§1) One screen for efficacy is the normal (not iron-loaded) Sprague-Dawley rat with a cannulated bile duct. In this model, collection of bile and urine after oral or parenteral administration of a chelator permits the rapid determination of the magnitude and route(s) of excretion. The iron-loaded Cebus apella monkey is used as a better screen, however. To date, the behavior of iron chelators in this primate model has been-quantitatively predictive of both the magnitude and routes of iron clearance after human administration.
# (§2) The primary measure of activity is the efficiency of the compound, as assessed in both rodent and primate models and compared with sc DFO. Compound efficiency is a comparative evaluation of how much iron excretion a chelator promotes relative to the theoretical amount. For example, the hexacoordinate chelator DFO forms 1:1 iron complexes with a formation constant of 3×10^30 M^−1 (Anderegg et al., Helv. Chim. Acta 46: 1409-1422 (1963)); if the efficiency were 100%, one mmol of DFO administered to an animal would cause one mmol of the iron complex to be excreted. In fact, only 5% of the calculated iron is excreted when DFO is administered to humans (Kirking et al., Clin. Pharmacol. 10:775-783 (1991)). In the case of the DFT analogues, the efficiency calculation is based on the formation of a 2:1 complex with a formation constant assumed to be similar to that of the parent compound, 4×10^29 M^−1 (Anderegg et al., J. Chem. Soc., Chem. Commun. 1194-1196 (1990).
# [2] = Iron clearance efficiency in the iron-loaded Cebus apella monkey; format: in vivo
# Text: as §1, §2
# [3] = cited from earlier work
# malarial parasites = assay: Impact on malarial parasites in vitro (48 h exposure, 48 h after removal, percent parasitemia); format: cell-based, Plasmodium
# Text: Studies can be done on the developmental stages and morphology of the malarial parasite in vitro; the minimum effective concentration required for cytotoxicity can be shown. The target structures include the nuclear envelope, the membrane of the food vacuole, accumulation of electron-dense substances in the mitochondria, undigested materials, and dilation of the endoplasmic reticulum.
# In order to determine the concentration at which a compound is cytostatic and cytotoxic, the parasites are exposed to the drug using at least two different concentrations. After 48 h the chelator is removed, and the parasites are incubated for an additional 48 h. The percent parasitemia is determined at both time points (48 and 96 h). The effects of the various compounds on malarial parasites seem quite varied. For the purposes of comparison, DFO can serve as the positive control. […] However, at a concentration of 10^−4 M, DFO is cytotoxic; the plasmodia die during the 48-h incubation with the compound.
# The compounds designated as 8 and 22 in Table I are active in this in vitro assay. Others can be similarly tested.
# [4] = administered to humans; cited from earlier work
SMILES,% Efficiency of Iron Clearance ([1]; route not given),% Efficiency of Iron Clearance ([2]; 150 μmol/kg po),% Efficiency of Iron Clearance ([1]; po),% Efficiency of Iron Clearance ([1]; sc),% Efficiency of Iron Clearance ([2]; 300 μmol/kg po),also measured
"C[C@]1(C(=O)O)CSC(c2ncccc2O)=N1 [1(S), desferrithiocin, reference compound]",5.5 ± 3.2%,16.1 ± 8.5%,–,–,–,Formation constant of iron complex ([3]; 2:1 complex): 4e+29 M⁻¹
"O=C(O)[C@H]1CSC(c2ncccc2O)=N1 [2(S), (S)-desmethyldesferrithiocin]",–,4.8 ± 2.7%,2.4 ± 0.56 (po) %,1.8 ± 0.7 (sc) %,8.0 ± 2.5%,% Efficiency of Iron Clearance ([2]; 300 μmol/kg sc): 8.3 ± 2.7%
"O=C(O)C1CSC(c2ccc(O)cc2O)=N1 [5(R), 4,5-Dihydro-2-(2-,4-dihydroxyphenyl)-4-thiazolecarboxylic acid]",≦0.5%,1.7 ± 0.8%,–,–,–,–
"O=C(O)C1CSC(c2ccc(O)cc2O)=N1 [5(S), 4,5-Dihydro-2-(2-,4-dihydroxyphenyl)-4-thiazolecarboxylic acid]",–,4.2 ± 1.4%,2.4 ± 0.9 (po) %,–,5.3 ± 1.7%,% Efficiency of Iron Clearance ([2]; 150 μmol/kg in H2O sc): 5.6 ± 0.9%; % Efficiency of Iron Clearance ([2]; 300 μmol/kg in H2O po): 4.8 ± 1.4%
"COc1cccc(C2=N[C@@H](C(=O)O)CS2)c1O [6(S), (S)-4,5-dihydro-2-(2-hydroxy-3-methoxyphenyl)-4-thiazolecarboxylic acid]",–,–,0.9 ± 0.3 (po) %,0.5 ± 0.9 (sc) %,–,–
"O=C(O)c1ccc(C2=N[C@@H](C(=O)O)CS2)c(O)c1 [7(S), (S)-4,5-Dihydro-2-(2-hydroxy-4-carboxyphenyl)-4-thiazolecarboxylic acid]",≦0.5%,–,–,–,–,–
C[C@]1(C(=O)O)CSC(c2ccccc2O)=N1 [9(S)],–,–,2.7 ± 0.5 (po) %,–,13.1 ± 4%,% Efficiency of Iron Clearance ([2]; 75 μmol/kg po): 21.5 ± 12%; % Efficiency of Iron Clearance ([2]; 300 μmol/kg sc): 43.3 ± 8.5%
"O=C(O)C1CCSC(c2ncccc2O)=N1 [14(S), 2-(3-hydroxy-2-pyridinyl)4H-5,6-dihydro-1,3-thiazine-4-carboxylic acid]",≦0.5%,–,–,–,–,–
"O=C(O)[C@H]1CSC(Cc2ccccc2O)=N1 [15(S), (S)-4,5-Dihydro-2-(2-hydroxyphenylmethyl)-4-thiazolecarboxylic acid]",≦0.5%,–,–,–,–,–
"O=C(O)C[C@H]1CSC(c2ccccc2O)=N1 [16(S), (S)-4,5-Dihydro-2-(2-hydroxyphenyl)-4-thiazoleacetic acid]",≦0.5%,–,–,–,–,–
"O=C(O)CC[C@H]1CSC(c2ccccc2O)=N1 [17(S), (S)-4,5-dihydro-2-(2-hydroxyphenyl)-4-thiazolepropanoic acid]",≦0.5%,–,–,–,–,–
"C[C@]1(C(=O)O)CSC(c2ccc(O)cc2O)=N1 [28(S), 4′-hydroxydesazaDFT]",≦0.5%,13.4 ± 5.8%,–,–,–,% Efficiency of Iron Clearance ([2]; 75 μmol/kg po): 17.7 ± 3.9%
"CN(O)C(=O)[C@H]1CSC(c2ncccc2O)=N1 [Compound 22, (S)-desmethyldesferrithiocin, N-methylhydroxamate]",–,6.9 ± 3.0%,3.1 ± 0.4 (po) %,5.3 ± 0.7 (sc) %,13.2 ± 7.7%,% Efficiency of Iron Clearance ([2]; 150 μmol/kg sc): 11.7 ± 5.5%; Activity in the in vitro malarial parasite assay (malarial parasites): active
O=C(C1CSC(c2ncccc2O)=N1)N(O)Cc1ccccc1 (stereo not shown) [Compound 24],–,–,1 ± 0.1 (po) %,1.4 ± 0.8 (sc) %,≦0.5%,% Efficiency of Iron Clearance ([2]; 300 μmol/kg sc): ≦0.5%
"Oc1cccnc1C1=N[C@@H](N(O)CCOCCOCCN(O)[C@H]2CSC(c3ncccc3O)=N2)CS1 [Compound 25, (S,S)-N^1,N^8-bis[4,5-dihydro-2-(3-hydroxy-2-pyridinyl)-4-thiazoyl]-N^1,N^8-dihydroxy-3,6-dioxa-1,8-octanediamine]",–,–,4.6 ± 2.1 (po) %,20.6 ± 1.3 (sc) %,–,–
CC(=O)N(O)CCCCCNC(=O)CCC(=O)N(O)CCCCCNC(=O)CCC(=O)N(O)CCCCCN [DFO],–,–,–,–,–,"Effect on plasmodia (malarial parasites; 48-h incubation at 10^−4 M): cytotoxic; Malarial growth after the compound is removed (malarial parasites; after 48-h exposure at 10^−5 M, compound removed): normal growth resumes; Effect on malarial growth (malarial parasites; initial 48-h continuous exposure at 10^−5 M): inhibits malarial growth; Formation constant of iron complex ([3]; 1:1 iron complex): 3e+30 M⁻¹; Efficiency: calculated iron excreted [4]: 5%"

# Reference: US7879886B2, “Iron binding agents” (University of Florida Research Foundation, Inc., priority 1998, dated 2011)
